Reference: patent publication US20060128792A1, “Deguelin as a chemopreventive agent for lung cancer” (priority 2002, published 2006)
Where “and” joins values, the source holds several entries; their conditions need not be identical. Equal entries are not always repeated.

How the values were obtained:
Format in all cases: cell-based
[1] = system: H596; test: MTT assay, growth inhibition by deguelin or deguelin derivatives; settings: 3 days
[2] = system: H460; test: as above; settings: 3 days
[3] = system: H358; test: as above; settings: 3 days
[4] = system: A549; test: as above; settings: 3 days
[5] = system: H1299; test: as above; settings: 3 days
[6] = system: H322; test: as above; settings: 3 days
[7] = system: NSCLC cells; test: MTT assay, growth inhibition of NSCLC cells by deguelin and deguelin derivatives (Table 2, FIG. 7); settings: 0.01-1 μM, 3 days

Compound: COc1cc2c(cc1OC)-c1c(oc3c4c(ccc3c1=O)OC(C)(C)C=C4)CO2 [7a,13a-dehydrodeguelin]
- MTT assay reading, Average ([1]; H596, 0.01 μM): 1.4338
- MTT assay reading, individual replicate ([1]; H596, 0.01 μM): 1.408 and 1.317 and 1.526 and 1.458 and 1.495 and 1.399
- MTT assay reading, Average ([1]; H596, 0.1 μM): 1.2779
- MTT assay reading, individual replicate ([1]; H596, 0.1 μM): 1.356 and 1.281 and 1.153 and 1.273 and 1.246 and 1.358 and 1.278
- MTT assay reading, Average ([1]; H596, 0.5 μM): 1.2116
- MTT assay reading, individual replicate ([1]; H596, 0.5 μM): 1.19 and 1.194 and 1.071 and 1.133 and 1.285 and 1.365 and 1.243
- MTT assay reading, Average ([1]; H596, 1 μM): 1.0616
- MTT assay reading, individual replicate ([1]; H596, 1 μM): 1.202 and 1.183 and 1.019 and 1.159 and 1.07 and 0.899 (2×)
- % control ([2]; H460, 0.01 μM): 0.86%
- MTT assay reading, Average ([2]; H460, 0.01 μM): 1.4779
- MTT assay reading, individual replicate ([2]; H460, 0.01 μM): 1.531 and 1.338 and 1.635 and 1.354 and 1.477 and 1.476 and 1.534
- % control ([2]; H460, 0.1 μM): 0.88%
- MTT assay reading, Average ([2]; H460, 0.1 μM): 1.5079
- MTT assay reading, individual replicate ([2]; H460, 0.1 μM): 1.473 and 1.427 and 1.518 and 1.504 and 1.524 and 1.575 and 1.534
- % control ([2]; H460, 0.5 μM): 0.78%
- MTT assay reading, Average ([2]; H460, 0.5 μM): 1.3309
- MTT assay reading, individual replicate ([2]; H460, 0.5 μM): 1.297 and 1.323 and 1.388 and 1.304 and 1.362 and 1.335 and 1.307
- % control ([2]; H460, 1 μM): 0.64%
- MTT assay reading, Average ([2]; H460, 1 μM): 1.1053
- MTT assay reading, individual replicate ([2]; H460, 1 μM): 1.191 and 1.216 and 1.047 and 1.094 and 0.946 and 1.108 and 1.135
- MTT assay reading, Average ([3]; H358, 0.01 μM): 0.7673
- MTT assay reading, individual replicate ([3]; H358, 0.01 μM): 0.79 and 0.678 and 0.647 and 0.812 and 0.791 and 0.864 and 0.789
- MTT assay reading, Average ([3]; H358, 0.1 μM): 0.769
- MTT assay reading, individual replicate ([3]; H358, 0.1 μM): 0.726 and 0.676 and 0.824 and 0.846 and 0.782 and 0.658 and 0.871
- MTT assay reading, Average ([3]; H358, 0.5 μM): 0.719
- MTT assay reading, individual replicate ([3]; H358, 0.5 μM): 0.684 and 0.6 and 0.66 and 0.739 and 0.819 and 0.753 and 0.778
- MTT assay reading, Average ([3]; H358, 1 μM): 0.6534
- MTT assay reading, individual replicate ([3]; H358, 1 μM): 0.691 and 0.548 and 0.643 and 0.706 and 0.647 and 0.656 and 0.683
- MTT assay reading, Average ([4]; A549, 0.01 μM): 1.2597
- MTT assay reading, individual replicate ([4]; A549, 0.01 μM): 1.182 and 1.147 and 1.307 and 1.208 and 1.279 and 1.361 and 1.334
- MTT assay reading, Average ([4]; A549, 0.1 μM): 1.1816
- MTT assay reading, individual replicate ([4]; A549, 0.1 μM): 1.073 and 1.17 and 1.208 and 1.308 and 1.211 and 1.152 and 1.149
- MTT assay reading, Average ([4]; A549, 0.5 μM): 1.0421
- MTT assay reading, individual replicate ([4]; A549, 0.5 μM): 1.107 and 1.032 and 0.931 and 0.964 and 1.036 and 1.104 and 1.121
- MTT assay reading, Average ([4]; A549, 1 μM): 0.9223
- MTT assay reading, individual replicate ([4]; A549, 1 μM): 0.97 and 0.971 and 1.014 and 0.89 and 0.862 and 0.886 and 0.863
- % control ([5]; H1299, 0.01 μM): 0.93%
- MTT assay reading, Average ([5]; H1299, 0.01 μM): 1.3179
- MTT assay reading, individual replicate ([5]; H1299, 0.01 μM): 1.311 and 1.344 and 1.402 and 1.302 and 1.286 and 1.293 and 1.287
- % control ([5]; H1299, 0.1 μM): 0.87%
- MTT assay reading, Average ([5]; H1299, 0.1 μM): 1.2374
- MTT assay reading, individual replicate ([5]; H1299, 0.1 μM): 1.228 and 1.331 and 1.318 and 1.141 and 1.196 and 1.153 and 1.295
- % control ([5]; H1299, 0.5 μM): 0.69%
- MTT assay reading, Average ([5]; H1299, 0.5 μM): 0.9707
- MTT assay reading, individual replicate ([5]; H1299, 0.5 μM): 1.033 and 1.017 and 1.106 and 0.913 and 0.874 and 0.947 and 0.905
- % control ([5]; H1299, 1 μM): 0.60%
- MTT assay reading, Average ([5]; H1299, 1 μM): 0.8452
- MTT assay reading, individual replicate ([5]; H1299, 1 μM): 0.769 and 0.838 and 0.938 and 0.813 and 0.837 and 0.876
- MTT assay reading, Average ([6]; H322, 0.01 μM): 1.0041
- MTT assay reading, individual replicate ([6]; H322, 0.01 μM): 0.921 and 1.08 and 1.05 and 1.022 and 0.888 and 0.926 and 1.142
- MTT assay reading, Average ([6]; H322, 0.1 μM): 1.0019
- MTT assay reading, individual replicate ([6]; H322, 0.1 μM): 1.04 and 1.033 and 0.923 and 1.031 and 1.09 and 0.883 and 1.013
- MTT assay reading, Average ([6]; H322, 0.5 μM): 0.866
- MTT assay reading, individual replicate ([6]; H322, 0.5 μM): 0.837 and 0.8 and 0.975 and 0.926 and 0.806 and 0.811 and 0.907
- MTT assay reading, Average ([6]; H322, 1 μM): 0.8379
- MTT assay reading, individual replicate ([6]; H322, 1 μM): 0.841 and 0.799 and 0.822 and 0.932 and 0.793 and 0.709 and 0.969

Compound: C=C(C)[C@H]1Cc2c(ccc3c2O[C@@H]2COc4cc(OC)c(OC)cc4[C@@H]2C3=O)O1 [rotenone]
- MTT assay reading, Average ([1]; H596, 0.01 μM): 0.4666
- MTT assay reading, individual replicate ([1]; H596, 0.01 μM): 0.393 and 0.433 and 0.462 and 0.499 and 0.497 (2×) and 0.485
- MTT assay reading, Average ([1]; H596, 0.1 μM): 0.3784
- MTT assay reading, individual replicate ([1]; H596, 0.1 μM): 0.271 and 0.369 and 0.513 and 0.582 and 0.413 and 0.285 and 0.216
- MTT assay reading, Average ([1]; H596, 0.5 μM): 0.2329
- MTT assay reading, individual replicate ([1]; H596, 0.5 μM): 0.189 and 0.362 and 0.261 and 0.296 and 0.156 and 0.203 and 0.163
- MTT assay reading, Average ([1]; H596, 1 μM): 0.177
- MTT assay reading, individual replicate ([1]; H596, 1 μM): 0.205 (2×) and 0.123 and 0.193 and 0.172 and 0.161 and 0.18
- % control ([2]; H460, 0.01 μM): 0.14%
- MTT assay reading, Average ([2]; H460, 0.01 μM): 0.2486
- MTT assay reading, individual replicate ([2]; H460, 0.01 μM): 0.092 and 0.412 and 0.24 and 0.191 and 0.228 and 0.242 and 0.335
- % control ([2]; H460, 0.1 μM): 0.10%
- MTT assay reading, Average ([2]; H460, 0.1 μM): 0.1766
- MTT assay reading, individual replicate ([2]; H460, 0.1 μM): 0.143 and 0.107 and 0.138 and 0.161 and 0.242 and 0.268 and 0.177
- % control ([2]; H460, 0.5 μM): 0.09%
- MTT assay reading, Average ([2]; H460, 0.5 μM): 0.1499
- MTT assay reading, individual replicate ([2]; H460, 0.5 μM): 0.185 and 0.159 and 0.143 and 0.1 and 0.104 and 0.117 and 0.241
- % control ([2]; H460, 1 μM): 0.10%
- MTT assay reading, Average ([2]; H460, 1 μM): 0.1763
- MTT assay reading, individual replicate ([2]; H460, 1 μM): 0.071 and 0.467 and 0.127 and 0.144 and 0.138 and 0.118 and 0.169
- MTT assay reading, Average ([3]; H358, 0.01 μM): 0.3171
- MTT assay reading, individual replicate ([3]; H358, 0.01 μM): 0.298 and 0.253 and 0.268 and 0.348 and 0.331 and 0.329 and 0.393
- MTT assay reading, Average ([3]; H358, 0.1 μM): 0.309
- MTT assay reading, individual replicate ([3]; H358, 0.1 μM): 0.257 and 0.27 and 0.281 and 0.311 and 0.338 and 0.371 and 0.335
- MTT assay reading, Average ([3]; H358, 0.5 μM): 0.2334
- MTT assay reading, individual replicate ([3]; H358, 0.5 μM): 0.263 and 0.209 and 0.189 and 0.244 and 0.198 and 0.235 and 0.296
- MTT assay reading, Average ([3]; H358, 1 μM): 0.2736
- MTT assay reading, individual replicate ([3]; H358, 1 μM): 0.308 and 0.205 and 0.243 and 0.287 and 0.258 and 0.247 and 0.367
- % control ([4]; A549, 0.01 μM): 0.35%
- MTT assay reading, Average ([4]; A549, 0.01 μM): 0.463
- MTT assay reading, individual replicate ([4]; A549, 0.01 μM): 0.425 and 0.439 and 0.541 and 0.451 and 0.45 and 0.428 and 0.507
- % control ([4]; A549, 0.1 μM): 0.27%
- MTT assay reading, Average ([4]; A549, 0.1 μM): 0.3653
- MTT assay reading, individual replicate ([4]; A549, 0.1 μM): 0.418 and 0.293 and 0.364 and 0.26 and 0.429 and 0.354 and 0.439
- % control ([4]; A549, 0.5 μM): 0.27%
- MTT assay reading, Average ([4]; A549, 0.5 μM): 0.3657
- MTT assay reading, individual replicate ([4]; A549, 0.5 μM): 0.284 and 0.833 and 0.266 and 0.314 and 0.246 and 0.308 and 0.309
- % control ([4]; A549, 1 μM): 0.13%
- MTT assay reading, Average ([4]; A549, 1 μM): 0.1791
- MTT assay reading, individual replicate ([4]; A549, 1 μM): 0.188 and 0.171 and 0.176 and 0.213 and 0.173 and 0.141 and 0.192
- MTT assay reading, Average ([5]; H1299, 0.01 μM): 0.2794
- MTT assay reading, individual replicate ([5]; H1299, 0.01 μM): 0.249 and 0.392 and 0.221 and 0.209 and 0.261 and 0.311 and 0.313
- MTT assay reading, Average ([5]; H1299, 0.1 μM): 0.1907
- MTT assay reading, individual replicate ([5]; H1299, 0.1 μM): 0.25 and 0.3 and 0.158 and 0.09 and 0.125 and 0.235 and 0.177
- MTT assay reading, Average ([5]; H1299, 0.5 μM): 0.2391
- MTT assay reading, individual replicate ([5]; H1299, 0.5 μM): 0.308 and 0.259 and 0.248 and 0.197 and 0.195 and 0.179 and 0.288
- MTT assay reading, Average ([5]; H1299, 1 μM): 0.2753
- MTT assay reading, individual replicate ([5]; H1299, 1 μM): 0.226 and 0.193 and 0.23 and 0.175 and 0.76 and 0.148 and 0.195
- MTT assay reading, Average ([6]; H322, 0.01 μM): 0.4327
- MTT assay reading, individual replicate ([6]; H322, 0.01 μM): 0.477 and 0.569 and 0.498 and 0.266 and 0.304 and 0.489 and 0.426
- MTT assay reading, Average ([6]; H322, 0.1 μM): 0.3726
- MTT assay reading, individual replicate ([6]; H322, 0.1 μM): 0.414 and 0.357 and 0.41 and 0.408 and 0.319 and 0.361 and 0.339
- MTT assay reading, Average ([6]; H322, 0.5 μM): 0.322
- MTT assay reading, individual replicate ([6]; H322, 0.5 μM): 0.262 and 0.328 and 0.307 and 0.34 and 0.378 and 0.353 and 0.286
- MTT assay reading, Average ([6]; H322, 1 μM): 0.2547
- MTT assay reading, individual replicate ([6]; H322, 1 μM): 0.229 and 0.223 and 0.225 and 0.288 and 0.226 and 0.338 and 0.254

Compound: bromorot-2′-enoic acid
- inhibiting cell growth in NSCLC cells, ranking among the derivatives [7]: most effective
